Experimental data as given in patent publication US12466790B1, “Bis urea-based organoselenium compound and method for treating cancer” (IMAM MOHAMMAD IBN SAUD ISLAMIC UNIVERSITY, priority 2024, dated 2025).

How the values were obtained:
melanoma cancer (A375) = assay: SRB growth inhibition assay, A375; assay type: cell-based; details: Homo sapiens, A-375, A375 cells, 100 μg/mL, 48 h incubation, read-out: growth inhibition percentage
Experimental: (§1) The antitumor activities of the bis-(organoselanyl urea)aryl agent against all tested cell lines were evaluated by sulphorhodamine-B (SRB) assay. Briefly, cells were seeded at a density of 3×10^3 cells/well in 96-well microtiter plates. They were left to attach for 24 h before incubation with the aforementioned compound. Next, cells were treated with 100 μg/mL for bis-(organoselanyl urea)aryl agent. For each concentration, three wells were used, and incubation was continued for 48 h. DMSO was used as a control vehicle (1% v/v). At the end of incubation, cells were fixed with 20% trichloroacetic acid and stained with 0.4% SRB dye. The optical density (O.D.) of each well was measured spectrophotometrically at 570 nm using an ELISA microplate reader (TECAN Sunrise™, Germany). The mean survival fraction at each drug concentration was calculated as follows: O.D. of the treated cells/O.D. of the control cells. The IC50 (concentration that produces 50% of cell growth inhibition) value of bis-(organoselanyl urea)aryl agent was calculated using sigmoidal dose-response curve-fitting models.

[1] = system: colorectal carcinoma (HCT116); assay: SRB growth inhibition assay, HCT116; assay type: cell-based; details: Homo sapiens, HCT-116, HCT116 cells, 100 μg/mL, 48 h incubation, read-out: growth inhibition percentage
Experimental: as §1

[2] = system: pharynx squamous carcinoma (FaDu); assay: SRB growth inhibition assay, FaDu; assay type: cell-based; details: Homo sapiens, FaDu cells, 100 μg/mL, 48 h incubation, read-out: growth inhibition percentage
Experimental: as §1

[3] = system: hepatocellular carcinoma (HuH7); assay: SRB growth inhibition assay, HuH7; assay type: cell-based; details: Homo sapiens, Huh-7, HuH7 cells, 100 μg/mL, 48 h incubation, read-out: growth inhibition percentage
Experimental: as §1

[4] = system: breast cancer cell line (MCF7); assay: SRB growth inhibition assay, MCF7; assay type: cell-based; details: Homo sapiens, MCF7 cells, 100 μg/mL, 48 h incubation, read-out: growth inhibition percentage
Experimental: as §1

[5] = system: hepatocellular carcinoma (HEPG2); assay: SRB growth inhibition assay, HEPG2; assay type: cell-based; details: Homo sapiens, HEPG2 cells, 100 μg/mL, 48 h incubation, read-out: growth inhibition percentage
Experimental: as §1

[6] = system: non-small cell lung cancer (A549); assay: SRB growth inhibition assay, A549; assay type: cell-based; details: Homo sapiens, A549 cells, 100 μg/mL, 48 h incubation, read-out: growth inhibition percentage
Experimental: as §1

[7] = system: human squamous cell carcinoma of the oral tongue (HN9); assay: SRB growth inhibition assay, HN9; assay type: cell-based; details: HN9 cells, 100 μg/mL, 48 h incubation, read-out: growth inhibition percentage
Experimental: as §1

[8] = system: human skin fibroblast normal cell (HSF); details: 48 h, 100 μg/mL
Experimental: as §1

[9] = system: normal oral epithelial cell line (OEC); details: 48 h, 100 μg/mL
Experimental: as §1

Row | Compound | inhibition at 100 µg/mL (melanoma cancer (A375)) | inhibition at 100 µg/mL [1] | inhibition at 100 µg/mL [2] | inhibition at 100 µg/mL [3] | inhibition at 100 µg/mL [4] | inhibition at 100 µg/mL [5] | inhibition at 100 µg/mL [6] | inhibition at 100 µg/mL [7] | growth inhibition percentage (safety, normal cells) [8] | growth inhibition percentage (safety, normal cells) [9]
1 | COc1cccc2c1C(=O)c1c(O)c3c(c(O)c1C2=O)C[C@@](O)(C(=O)CO)C[C@@H]3O[C@H]1C[C@H](N)[C@H](O)[C@H](C)O1 [doxorubicin, reference compound] | 78.2% | 64.3% | 79.3% | 68% | 58.6% | 55.6% | 39.1% | 51.7% |  | 
2 | C[Se]c1ccc(NC(=O)Nc2ccc(Cc3ccc(NC(=O)Nc4ccc([Se]C)cc4)cc3)cc2)cc1 [HB190, 1,1′-(methylenebis(4,1-phenylene))bis(3-(4-(methylselanyl)phenyl)urea)] | 66.8% | 85.3% | 77.3% | 88.6% | 67.7% | 76.2% | 74.4% | 74% | 9.76% | 7.32%
